Results from patent publication US6900010B2, “Compositions and methods for detecting human immunodeficiency virus” (MUSC Foundation For Research Development, priority 1999, dated 2005).

Tested on: HIV (strain GRCSF) in HeLaD4R4 cells
Test: HIV infection of HeLaD4R4 cells with lacZ reporter, X-gal staining
Assay type: cell-based
Excerpt: A recombinant cell line was established from human cervical cancer HeLa cells. The HeLa cells were cotransfected with an expression vector (pRepD4R4) and a vector (pTAR3Clac) at a 1:1 ratio. As shown in FIG. 2A the expression vector pRepD4R4 includes CD4 receptor and CXCR4 receptor genes that are separated by an IRES sequence. As shown FIG. 2B the vector pTAR3Clac includes a reporter sequence comprising a promoter region that includes three copies of TAR sequences and a CMV basic promoter, and a lacZ reporter gene whose expression is under the control of the promoter. The stably-transfected cells were selected by culturing in medium containing G418 at 900 μg/ml. Each clone of the cells selected was subsequently cultured in duplicates, and one of the duplicates was infected with a low titer HIV stock solution. The low-titer HIV stock was collected from supernatant of a HeLa cell culture that was transfected with a B-cell tropic HIV provirus DNA (strain GRCSF) and incubated for 3 days post transfection.
Upon infection of HIV contained in the stock solution, Tat protein expressed from the viral genome binds to TAR and induces expression of lacZ reporter gene to produce high level of β-galactosidase. The cell clones expressing β-galactosidase and stained blue with X-gal were identified, and the cells from the uninfected duplicate of the darkest blue colony were propagated. […]

SMILES: Cc1cn([C@H]2C[C@H](N=[N+]=[N-])[C@@H](CO)O2)c(=O)[nH]c1=O [AZT, zidovudine]
- cells infected and stained blue (HIV replication and infection) (AZT 100 μg/ml, four days of incubation, HeLaD4R4 cells): only a few clusters of cells were infected and stained blue
- expression of the reporter gene (in the presence of AZT, FIG. 3F compared with FIGS. 3B-3E): significantly reduced
